Columns and labels:
[1] = stated in U.S. Pat. No. 1,860,286; cited from earlier work
[2] = Tolerance in the conscious dog, oral; settings: in vivo, read-out: oral doses tolerated (up to)
Procedure: (§1) No toxic effects or other undesirable effects have been observed with the compounds at doses at which they are active in the above-mentioned tests. Furthermore, as an indication of the lack of toxicity of a specific compound of the invention, namely 2-(2-dimethylamino-2-methylpropylthio)-4-methyl-3-phenylquinoline, that compound is tolerated in both the conscious dog and the marmoset at oral doses of up to 60 mg./kg.

[3] = Tolerance in the marmoset, oral; settings: in vivo, read-out: oral doses tolerated (up to)
Procedure: as §1

SMILES | antipyretic activity [1] | MTD [2] | MTD [3]
CCN(CC)CCOc1nc2ccccc2cc1-c1ccccc1 [2-(2-diethylaminoethoxy)-3-phenylquinoline] | exhibits antipyretic activity |  | 
Cc1c(-c2ccccc2)c(SCC(C)(C)N(C)C)nc2ccccc12.O=C(O)/C=C/C(=O)O.O=C(O)/C=C/C(=O)O [Example 3, 2-(2-dimethylamino-2-methylpropylthio)-4-methyl-3-phenylquinoline difumarate] |  | ≥ 60 mg/kg | ≥ 60 mg/kg
